Data on 17 compounds can be found in patent US5196427A, “3-aryl-4(3H) quinazolinone CCK antagonists and pharmaceutical formulations thereof” (Eli Lilly and Company, priority 1991, dated 1993).

Where two headings read alike, the source gives them in different places.

In test [1] the target is T1, peripheral type CCK receptors in rat pancreas (Rattus norvegicus, UniProt P30551).
T1 construct: from tissue; host or cells: pancreas membranes of male Sprague-Dawley rats
T1 sequence (P30551 1-444): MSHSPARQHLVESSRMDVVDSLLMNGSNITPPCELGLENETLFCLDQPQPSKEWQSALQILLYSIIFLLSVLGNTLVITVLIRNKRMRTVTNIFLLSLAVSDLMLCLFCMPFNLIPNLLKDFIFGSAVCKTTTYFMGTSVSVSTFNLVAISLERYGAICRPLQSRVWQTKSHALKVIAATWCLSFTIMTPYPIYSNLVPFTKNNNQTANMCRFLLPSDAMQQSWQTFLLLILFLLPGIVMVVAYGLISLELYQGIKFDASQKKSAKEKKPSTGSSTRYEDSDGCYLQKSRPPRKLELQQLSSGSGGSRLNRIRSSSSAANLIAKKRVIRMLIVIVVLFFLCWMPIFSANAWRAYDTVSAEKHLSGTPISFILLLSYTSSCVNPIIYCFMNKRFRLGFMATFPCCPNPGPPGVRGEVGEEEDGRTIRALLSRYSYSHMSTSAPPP
Description: Binding to peripheral type CCK receptors in rat pancreas (3H-L364,718). To be noted: read-out: Pancreas % inhibition in binding assay. On the procedure: Binding to peripheral type CCK receptors in rat pancreas was done according to the method of Chang et al. (Mol. Pharmacol. 30: 212-217, 1986) using ^3 H-L364, 718. Pancreas was obtained from male & Sprague-Dawley rats, 150-200 g, after decapitation, and dissected free from adipose and connective tissue. The tissue was homogenized in 30 volumes of 50 mM Tris buffer, pH 7.4 and centrifuged at 40,000 g for 10 min. The tissue pellet was washed by resuspension and centrifugation as described above. The final pellet was suspended in 500 volumes of assay buffer (50 mM Tris buffer, pH 7.4, 5 mM MgC2, 0.14 mg/ml bacitracin, and 5 mM dithiothreitol) to give a protein concentration of 30-60 μg/200 μl. Reagent volumes for the assay were the same as those used for CCK binding to brain membranes. […] The samples were incubated 1 hour at room temperature and then filtered as described for the CCK-brain receptor. Scintillation cocktail was added to the filters which were counted for radioactivity using a Micromedic Taurus automatic liquid scintillation counter.
Compound samples were prepared and IC-50 values were determined as described for the CCK-brain experiments. Non-specific binding was that amount left bound to the filters after adding 100 nM L-364,718.

A further test concerns the target T2, Brain CCK receptor (Mus musculus, UniProt P56481).
T2 construct: from tissue; host or cells: forebrain membranes of male CF-1 mice
T2 sequence (P56481 1-453): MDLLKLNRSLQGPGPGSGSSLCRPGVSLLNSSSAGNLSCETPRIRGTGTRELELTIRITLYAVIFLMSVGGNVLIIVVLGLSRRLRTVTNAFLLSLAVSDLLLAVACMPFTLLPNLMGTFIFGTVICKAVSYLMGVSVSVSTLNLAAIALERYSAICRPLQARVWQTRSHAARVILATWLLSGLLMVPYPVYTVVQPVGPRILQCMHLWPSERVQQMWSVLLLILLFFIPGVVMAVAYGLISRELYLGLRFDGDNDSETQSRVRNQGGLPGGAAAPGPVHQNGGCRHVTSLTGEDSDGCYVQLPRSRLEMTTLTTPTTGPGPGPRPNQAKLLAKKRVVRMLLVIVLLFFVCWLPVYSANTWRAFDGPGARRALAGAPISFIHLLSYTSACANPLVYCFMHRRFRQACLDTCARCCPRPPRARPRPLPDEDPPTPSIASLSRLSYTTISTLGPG
The experiment in a line: Brain CCK receptor binding (mouse brain membranes, 125I-CCK-8 sulfate). To be noted: for IC50: mouse brain membranes, Mean ± SEM, n = 3, values without SEM n = 1, read-out: Brain IC50. Here is the method:
Brain CCK receptor binding was performed using mouse brain membranes according to the method of Chang and Lotti (Proc. Natl. Acad. Sci. 83: 4923-4926, 1986). Male CF-1 mice, 23-25 g were sacrificed by cervical dislocation, the forebrain removed and placed in ice cold 50 mM Tris buffer, pH 7.4. The tissue was homogenized in 100 volumes of the Tris buffer with a Brinkman Polytron or Tekmar Tissumizer and then centrifuged at 40,000 g for 10 min. Pellets were resuspended in Tris buffer, centrifuged as above and then resuspended in 100 volumes of assay buffer, pH 6.5 (20 mM N-2-hydroxyethyl-piperazine-N'-2-ethane sulfonic acid (HEPES), 1 mM ethylene glycol bis(2-aminoethyl ether-N,N,N',N'-tetraaceticacid) (EGTA), 5 mM MgCl2, 130 mM NaCl, and 0.25 mg/ml bacitracin). The binding assay consisted of 50 μL of compound (or buffer for total binding), 50 μL of ^125 I-CCK-8 sulfate (20 pM) (Amersham IM-159), 200 μL of assay buffer and 200 μL of homogenate (80-120 μg protein). The samples were incubated at room temperature (25°) for 2 hours, and they were then filtered through GF/B glass fiber filters (soaked in wash buffer for 2 hours before use) using a 48 well Brandel cell harvester designed for receptor binding. The filters were washed twice with 3 ml of 50 mM Tris buffer, pH 7.4, containing 0.01% BSA and then counted for radioactivity in plastic tubes with a Micromedic 10/600 automatic gamma counter.
Compounds were dissolved in dimethyl sulfoxide (DMSO) at a concentration of 10 mM and then further diluted with assay buffer. […] IC-50 values of displacement curves were determined using 7 concentrations of compound and were calculated using the ALLFIT computer program of DeLean, Munson and Rodbard (Am. J. Physiol. 235: E97-E102, 1978). Non-specific binding was determined as the displacement of the radioligand by 100 nM CCK-8 sulfate.

The target of the next test is T3, Gastrin receptor (Cavia porcellus, UniProt H0VZC5).
T3 construct: from tissue; host or cells: stomach fundus mucosal membranes of male Hartley guinea pigs
T3 sequence (H0VZC5 1-426): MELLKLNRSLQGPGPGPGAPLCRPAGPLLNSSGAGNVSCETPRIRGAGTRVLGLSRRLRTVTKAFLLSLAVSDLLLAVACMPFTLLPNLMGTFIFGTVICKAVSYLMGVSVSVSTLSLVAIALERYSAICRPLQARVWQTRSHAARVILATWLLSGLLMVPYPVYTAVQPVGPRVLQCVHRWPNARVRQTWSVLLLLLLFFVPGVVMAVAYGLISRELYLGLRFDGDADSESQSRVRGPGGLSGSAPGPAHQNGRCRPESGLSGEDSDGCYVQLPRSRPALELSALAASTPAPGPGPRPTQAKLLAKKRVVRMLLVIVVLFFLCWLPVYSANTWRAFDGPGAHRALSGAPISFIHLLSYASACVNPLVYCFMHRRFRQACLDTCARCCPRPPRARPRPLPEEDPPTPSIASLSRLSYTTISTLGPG
Description: Gastrin binding to guinea pig stomach mucosal membranes (125I-gastrin I). To be noted: Mean ± SEM, n = 3. Here is the method: The method used for gastrin binding to guinea pig stomach mucosal membranes was similar to that described by Takeuchi, Speir and Johnson (Am. J. Physiol. 237(3): E284-E294, 1979). Guinea pig stomach […] was obtained from male Hartley guinea pigs, 300-350 g, and the mucosa was scraped off with a glass The mucosa was homogenized in 50 mM Tris buffer, pH 7.4, containing 1 mM phenylmethanesulfonyl fluoride using a Dounce glass homogenizer, and the suspension was centrifuged at 40,000 g for 10 min. The resulting pellet was resuspended and centrifuged once more, the final pellet was then suspended in 100 ml assay buffer per 1 guinea pig stomach to give a protein concentration of 200-300 μg/200 μl. The assay buffer consisted of 50 mM Tris buffer, pH 7.4, 5 mM MgC2, 0.14 mg/ml bacitracin, and 1 μg/ml each of leupeptin, chymostatin, aprotinin and pepstatin. Reagent volumes for the assay were the same as those used for CCK binding to brain membranes. The radioactive ligand was 20 pM ^125 I-gastrin I, from DuPont NEN (NEX-176). The samples were incubated 3 hours at room temperature and filtered and counted as described for CCK binding to brain membranes. Compound samples were prepared and IC-50 values were determined as described for the CCK-brain receptor binding. Non-specific binding was determined using 100 nM gastrin I (human synthetic from Sigma Chemical Co.).

Turning to `O=c1c2ccccc2nc(CCc2c[nH]c3ccccc23)n1-c1ccccc1` [Example 1, 2-[2-(3-indolyl)ethyl]-3-phenyl-4-(3H)quinazolinone], in test [1], the inhibition (in general, the drop in the measured response relative to a control, in per cent) at 10 µM amounted to 37%. The IC50 (commonly the concentration needed to halve the response being measured) on Brain CCK receptor came out at 0.67 ± 0.15 µM.

`CC(C)Oc1cccc(-n2c(CCc3c[nH]c4ccc(Br)cc34)nc3ccccc3c2=O)c1` [Example 4, 2-[2-(5-Bromoindol-3-yl)ethyl]-3-(3-isopropoxyphenyl)-4-quinazolinone]: the inhibition at 10 µM in test [1] (rat pancreas, 10 μM) is -1.4%.

In the case of `O=c1c2ccccc2nc(CCc2c[nH]c3ccccc23)n1-c1cccc(F)c1` [Example 12], in test [1], the inhibition at 10 µM was 11%. Moreover, on Brain CCK receptor, the IC50 was 0.73 ± 0.17 µM.

Consider `O=c1c2ccccc2nc(CCc2c[nH]c3ccccc23)n1-c1cccc(Cl)c1` [Example 13], for which, in test [1], the inhibition at 10 µM was 17%. Further, on Brain CCK receptor, the IC50 was 0.69 ± 0.16 µM.

Take `Cc1cccc(-n2c(CCc3c[nH]c4ccccc34)nc3ccccc3c2=O)c1` [Example 14]: the inhibition at 10 µM in test [1] turned out to be 0.6%. Also, the IC50 on Brain CCK receptor was found to be 0.15 ± 0.01 µM.

Regarding `O=c1c2ccccc2nc(CCc2c[nH]c3ccccc23)n1-c1cccc(Br)c1` [Example 15], the inhibition at 10 µM in test [1] (rat pancreas, 10 μM) is -5.7%. Further, the IC50 on Brain CCK receptor is 0.37 ± 0.03 µM.

With `O=c1c2ccccc2nc(CCc2c[nH]c3ccc(Cl)cc23)n1-c1cccc(Br)c1` [Example 16], the inhibition at 10 µM in test [1] (rat pancreas, 10 μM) came to 2%. Further, the half-inhibitory concentration (IC50) at Brain CCK receptor was 0.19 µM.

As for `COc1cccc(-n2c(CCc3c[nH]c4ccccc34)nc3ccccc3c2=O)c1` [Example 17], the inhibition at 10 µM in test [1] was 16%. The IC50 on Brain CCK receptor turned out to be 0.16 ± 0.03 µM.

For `COc1cccc(-n2c(CCc3c[nH]c4ccc(Br)cc34)nc3ccccc3c2=O)c1` [Example 20], the inhibition at 10 µM in test [1] (rat pancreas, 10 μM) amounted to 5.3%.

For `CCOc1cccc(-n2c(CCc3c[nH]c4ccc(Br)cc34)nc3ccccc3c2=O)c1` [Example 23], in test [1] (rat pancreas, 10 μM), the inhibition at 10 µM is -14%. Moreover, the IC50 on Brain CCK receptor is 0.034 ± 0.007 µM.

In the case of `CCc1cccc(-n2c(CCc3c[nH]c4ccccc34)nc3ccccc3c2=O)c1` [Example 28], the inhibition at 10 µM in test [1] came out at 2.6%. Moreover, the IC50 at Brain CCK receptor came out at 0.072 ± 0.001 µM.

Regarding `CCc1cccc(-n2c(CCc3c[nH]c4ccc(Br)cc34)nc3ccccc3c2=O)c1` [Example 29], the inhibition at 10 µM in test [1] (rat pancreas, 10 μM) was -4.5%. The IC50 on Brain CCK receptor turned out to be 0.046 ± 0.01 µM; at Gastrin receptor, 1.1 ± 0.2 µM.

Regarding `CCc1cccc(-n2c(CCc3c[nH]c4ccc(Cl)cc34)nc3ccccc3c2=O)c1` [Example 30], the inhibition at 10 µM in test [1] (rat pancreas, 10 μM) is -9.1%. In addition, the IC50 on Brain CCK receptor was determined as 0.03 µM.

With `CCc1cccc(-n2c(CCc3c[nH]c4ccc(OC)cc34)nc3ccccc3c2=O)c1` [Example 31], the inhibition at 10 µM in test [1] (rat pancreas, 10 μM) came to 11%. The IC50 on Brain CCK receptor was 0.022 µM.

`COc1ccc(-n2c(CCc3c[nH]c4ccc(Br)cc34)nc3ccccc3c2=O)cc1` [Example 52]: in test [1] (rat pancreas, 10 μM), the inhibition at 10 µM is 0.3%. The IC50 at Brain CCK receptor came to 0.031 ± 0.006 µM.

For the compound `O=c1c2ccccc2nc(CCCc2c[nH]c3ccccc23)n1-c1ccccc1` [Example 62], the inhibition at 10 µM turned out to be 11% in test [1] (rat pancreas, 10 μM) and 20% at Brain CCK receptor (read-out: Brain % inhibition in binding assay, mouse brain membranes, 10 μM).

Consider `CCc1cccc(-n2c(CC(C)c3c[nH]c4ccc(Br)cc34)nc3ccccc3c2=O)c1` (stereo not drawn) [Example 64], for which the IC50 at Brain CCK receptor amounted to 0.1 ± 0.01 µM; on Gastrin receptor, 1.6 ± 0.1 µM.
